According to ChEMBL document CHEMBL1201862, “PubChem BioAssay data set” (2004):
Active and inactive are the calls of the source.

Tests used:
[1] = M. tuberculosis growth inhibition, HTS (AID 449762); type: functional
[2] = system: HEK293; assay: Fluorescence-based counterscreen for potentiators or agonists of NPY-Y1: cell-based high-throughput dose response assay for inhibitors of cyclic nucleotide gated ion channel (CNGC) activity. In this assay, the parental HEK293 cell line transfected with a cyclic-nucleotide gated ion channel (CNGC)-based cAMP sensor is used to measure inhibition of isoproterenol-induced CNGC …; type: functional; details: Homo sapiens
[3] = target: T1, Neuropeptide Y receptor type 2 (Homo sapiens, UniProt P49146); assay: Fluorescence-based counterscreen for agonists of NPY-Y1: cell-based high-throughput dose response assay for agonists of NPY-Y2.; type: functional
T1 sequence (P49146 whole entry): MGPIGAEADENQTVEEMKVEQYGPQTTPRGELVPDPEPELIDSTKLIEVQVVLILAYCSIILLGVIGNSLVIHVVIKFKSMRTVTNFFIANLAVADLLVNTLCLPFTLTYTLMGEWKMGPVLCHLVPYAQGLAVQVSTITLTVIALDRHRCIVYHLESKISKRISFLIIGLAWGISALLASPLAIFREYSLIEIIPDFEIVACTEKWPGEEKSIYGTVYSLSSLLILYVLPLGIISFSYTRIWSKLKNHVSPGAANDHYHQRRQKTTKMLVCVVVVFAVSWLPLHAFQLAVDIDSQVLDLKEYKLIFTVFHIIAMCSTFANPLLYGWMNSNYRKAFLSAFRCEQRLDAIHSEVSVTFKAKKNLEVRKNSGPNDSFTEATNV

[4] = target: T2, Estrogen receptor (Homo sapiens, UniProt P03372);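 note: potency for inhibiting coactivator peptide recruitment to the receptor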
T2 sequence (P03372 whole entry): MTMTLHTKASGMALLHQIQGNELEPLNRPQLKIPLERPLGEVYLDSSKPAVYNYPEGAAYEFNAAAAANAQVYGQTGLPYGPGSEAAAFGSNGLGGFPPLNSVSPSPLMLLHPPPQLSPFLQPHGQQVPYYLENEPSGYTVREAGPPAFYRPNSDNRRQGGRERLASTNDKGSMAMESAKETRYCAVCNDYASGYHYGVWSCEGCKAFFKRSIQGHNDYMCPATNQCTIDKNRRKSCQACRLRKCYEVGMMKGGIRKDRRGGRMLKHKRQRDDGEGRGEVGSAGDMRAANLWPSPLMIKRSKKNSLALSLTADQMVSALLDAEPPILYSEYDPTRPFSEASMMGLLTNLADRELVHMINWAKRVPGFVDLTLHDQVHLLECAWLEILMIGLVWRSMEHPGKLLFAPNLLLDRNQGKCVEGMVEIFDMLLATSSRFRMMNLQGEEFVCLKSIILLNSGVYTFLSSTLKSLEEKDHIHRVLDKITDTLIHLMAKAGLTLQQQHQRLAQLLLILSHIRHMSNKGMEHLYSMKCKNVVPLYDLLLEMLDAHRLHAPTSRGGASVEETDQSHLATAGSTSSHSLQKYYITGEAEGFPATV

[5] = target: T3, Neuropeptide Y receptor type 1 (Homo sapiens, UniProt P25929); assay: Fluorescence-based dose response cell-based high-throughput screening assay for agonists of NPY-Y1. [Related pubchem assays: 1697 (Screening assay (NPY-Y1 agonists).), 1359 (Screening assay (NPY-Y2 potentiators or agonists).), 1304 (Screening assay (NPY-Y1 potentiators or agonists).), 1704 (Screening assay (CNGC inhibitors).), 1791 (Summary AID.)]; type: functional
T3 sequence (P25929 whole entry): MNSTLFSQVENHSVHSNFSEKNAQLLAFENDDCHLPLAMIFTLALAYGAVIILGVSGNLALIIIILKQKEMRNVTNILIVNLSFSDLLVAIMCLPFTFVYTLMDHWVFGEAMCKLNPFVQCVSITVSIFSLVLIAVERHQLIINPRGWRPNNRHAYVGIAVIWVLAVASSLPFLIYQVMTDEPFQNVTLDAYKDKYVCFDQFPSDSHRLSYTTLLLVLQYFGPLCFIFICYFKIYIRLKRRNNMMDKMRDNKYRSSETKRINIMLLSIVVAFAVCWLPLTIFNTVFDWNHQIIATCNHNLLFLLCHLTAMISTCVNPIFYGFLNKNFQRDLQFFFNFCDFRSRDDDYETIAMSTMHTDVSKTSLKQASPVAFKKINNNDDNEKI

[6] = target: Neuropeptides B/W receptor type 1 (Homo sapiens, UniProt P48145); assay: Fluorescence-based dose response cell-based high throughput screening assay to identify antagonists of the G-protein coupled receptor 7 (GPR7). [Related pubchem assays: 1952 (Screening assay (GPR7 antagonists).), 1880 (Summary AID.)]; type: functional
Chain of Neuropeptides B/W receptor type 1 (P48145 whole entry, the tested form may be a part): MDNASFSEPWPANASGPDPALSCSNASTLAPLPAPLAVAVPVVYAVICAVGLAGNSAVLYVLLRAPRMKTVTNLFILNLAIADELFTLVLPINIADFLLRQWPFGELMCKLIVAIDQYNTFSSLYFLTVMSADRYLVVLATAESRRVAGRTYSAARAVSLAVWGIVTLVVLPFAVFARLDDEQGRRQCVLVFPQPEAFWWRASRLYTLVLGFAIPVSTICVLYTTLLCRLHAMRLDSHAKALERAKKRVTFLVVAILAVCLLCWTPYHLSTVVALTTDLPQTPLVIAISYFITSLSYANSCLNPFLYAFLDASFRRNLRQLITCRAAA

[7] = target: T4, Oxysterols receptor LXR-beta (Homo sapiens, UniProt P55055); type: functional, cell-based;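 note: agonist activity at LXR measured by a cell-based luminescence readout across a dose range, run as a counterscreen for daf-12 agonists; HEK293 cells with Gal4-LXR fusion and GAL4-driven luciferase reporter; potency for activation of Gal4-LXR reporter so compounds are agonists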
T4 sequence (P55055 whole entry): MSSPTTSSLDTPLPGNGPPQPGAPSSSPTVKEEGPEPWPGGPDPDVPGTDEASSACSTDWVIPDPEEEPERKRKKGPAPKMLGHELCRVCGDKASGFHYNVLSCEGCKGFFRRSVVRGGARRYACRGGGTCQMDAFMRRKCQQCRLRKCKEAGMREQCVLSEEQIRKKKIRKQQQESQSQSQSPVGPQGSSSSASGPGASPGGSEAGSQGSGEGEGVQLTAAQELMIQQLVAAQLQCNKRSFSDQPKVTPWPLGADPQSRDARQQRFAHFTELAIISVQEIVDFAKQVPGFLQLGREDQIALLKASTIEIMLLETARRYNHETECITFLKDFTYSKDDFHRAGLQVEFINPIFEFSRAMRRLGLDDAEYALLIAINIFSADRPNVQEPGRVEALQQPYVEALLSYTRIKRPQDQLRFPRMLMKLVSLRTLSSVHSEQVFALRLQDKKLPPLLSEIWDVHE

[8] = target: Melanin-concentrating hormone receptor 1 (Homo sapiens, UniProt Q99705); assay: Fluorescence-based counterscreen for antagonists of the G-protein coupled receptor 7 (GPR7): cell-based high throughput dose response assay to identify antagonists of the melanin-concentrating hormone receptor 1 (MCHR1).; type: functional
Chain of Melanin-concentrating hormone receptor 1 (Q99705 whole entry): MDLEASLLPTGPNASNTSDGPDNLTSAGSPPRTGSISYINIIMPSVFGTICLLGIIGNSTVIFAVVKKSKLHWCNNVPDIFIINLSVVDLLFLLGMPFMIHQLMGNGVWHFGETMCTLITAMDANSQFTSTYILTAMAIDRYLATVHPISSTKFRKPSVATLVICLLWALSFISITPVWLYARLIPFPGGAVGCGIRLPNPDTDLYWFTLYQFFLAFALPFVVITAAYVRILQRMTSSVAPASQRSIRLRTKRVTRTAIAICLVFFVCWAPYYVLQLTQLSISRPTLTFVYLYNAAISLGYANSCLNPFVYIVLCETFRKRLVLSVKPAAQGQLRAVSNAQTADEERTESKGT

[9] = target: T5, Dual specificity protein phosphatase 3 (Homo sapiens, UniProt P51452); assay: VHR1 inhibitor Ki determination, SAR follow-up, biochemical, colorimetric (AID 2004)
T5 sequence (P51452 whole entry): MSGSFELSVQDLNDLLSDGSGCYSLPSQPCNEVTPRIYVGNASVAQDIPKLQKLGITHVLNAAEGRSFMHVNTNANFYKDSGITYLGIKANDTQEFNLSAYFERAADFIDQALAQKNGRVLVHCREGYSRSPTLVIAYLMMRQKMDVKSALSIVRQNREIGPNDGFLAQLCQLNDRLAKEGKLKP

[10] = target: T6, Tyrosine-protein phosphatase non-receptor type 7 (Homo sapiens, UniProt P35236); assay: redox-dependent HePTP inhibition, mechanism study, biochemical, fluorescence (AID 2068); type: functional
T6 sequence (P35236 whole entry): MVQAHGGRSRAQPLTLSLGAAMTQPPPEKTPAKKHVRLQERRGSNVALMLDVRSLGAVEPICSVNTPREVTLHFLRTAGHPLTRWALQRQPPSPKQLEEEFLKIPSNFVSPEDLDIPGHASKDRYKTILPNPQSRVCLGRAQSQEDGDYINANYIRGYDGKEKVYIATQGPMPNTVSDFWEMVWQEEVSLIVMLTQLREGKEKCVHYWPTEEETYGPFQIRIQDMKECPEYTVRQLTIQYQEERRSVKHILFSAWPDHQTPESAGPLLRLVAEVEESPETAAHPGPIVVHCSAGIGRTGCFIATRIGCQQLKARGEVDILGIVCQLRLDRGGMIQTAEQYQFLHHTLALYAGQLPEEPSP

[11] = target: DNA (cytosine-5)-methyltransferase 1 (Homo sapiens, UniProt P26358); assay: DNMT1 methyltransferase inhibitors, confirmation, biochemical, fluorescent molecular beacon (AID 602386); type: functional
Chain of DNA (cytosine-5)-methyltransferase 1 (P26358 whole entry): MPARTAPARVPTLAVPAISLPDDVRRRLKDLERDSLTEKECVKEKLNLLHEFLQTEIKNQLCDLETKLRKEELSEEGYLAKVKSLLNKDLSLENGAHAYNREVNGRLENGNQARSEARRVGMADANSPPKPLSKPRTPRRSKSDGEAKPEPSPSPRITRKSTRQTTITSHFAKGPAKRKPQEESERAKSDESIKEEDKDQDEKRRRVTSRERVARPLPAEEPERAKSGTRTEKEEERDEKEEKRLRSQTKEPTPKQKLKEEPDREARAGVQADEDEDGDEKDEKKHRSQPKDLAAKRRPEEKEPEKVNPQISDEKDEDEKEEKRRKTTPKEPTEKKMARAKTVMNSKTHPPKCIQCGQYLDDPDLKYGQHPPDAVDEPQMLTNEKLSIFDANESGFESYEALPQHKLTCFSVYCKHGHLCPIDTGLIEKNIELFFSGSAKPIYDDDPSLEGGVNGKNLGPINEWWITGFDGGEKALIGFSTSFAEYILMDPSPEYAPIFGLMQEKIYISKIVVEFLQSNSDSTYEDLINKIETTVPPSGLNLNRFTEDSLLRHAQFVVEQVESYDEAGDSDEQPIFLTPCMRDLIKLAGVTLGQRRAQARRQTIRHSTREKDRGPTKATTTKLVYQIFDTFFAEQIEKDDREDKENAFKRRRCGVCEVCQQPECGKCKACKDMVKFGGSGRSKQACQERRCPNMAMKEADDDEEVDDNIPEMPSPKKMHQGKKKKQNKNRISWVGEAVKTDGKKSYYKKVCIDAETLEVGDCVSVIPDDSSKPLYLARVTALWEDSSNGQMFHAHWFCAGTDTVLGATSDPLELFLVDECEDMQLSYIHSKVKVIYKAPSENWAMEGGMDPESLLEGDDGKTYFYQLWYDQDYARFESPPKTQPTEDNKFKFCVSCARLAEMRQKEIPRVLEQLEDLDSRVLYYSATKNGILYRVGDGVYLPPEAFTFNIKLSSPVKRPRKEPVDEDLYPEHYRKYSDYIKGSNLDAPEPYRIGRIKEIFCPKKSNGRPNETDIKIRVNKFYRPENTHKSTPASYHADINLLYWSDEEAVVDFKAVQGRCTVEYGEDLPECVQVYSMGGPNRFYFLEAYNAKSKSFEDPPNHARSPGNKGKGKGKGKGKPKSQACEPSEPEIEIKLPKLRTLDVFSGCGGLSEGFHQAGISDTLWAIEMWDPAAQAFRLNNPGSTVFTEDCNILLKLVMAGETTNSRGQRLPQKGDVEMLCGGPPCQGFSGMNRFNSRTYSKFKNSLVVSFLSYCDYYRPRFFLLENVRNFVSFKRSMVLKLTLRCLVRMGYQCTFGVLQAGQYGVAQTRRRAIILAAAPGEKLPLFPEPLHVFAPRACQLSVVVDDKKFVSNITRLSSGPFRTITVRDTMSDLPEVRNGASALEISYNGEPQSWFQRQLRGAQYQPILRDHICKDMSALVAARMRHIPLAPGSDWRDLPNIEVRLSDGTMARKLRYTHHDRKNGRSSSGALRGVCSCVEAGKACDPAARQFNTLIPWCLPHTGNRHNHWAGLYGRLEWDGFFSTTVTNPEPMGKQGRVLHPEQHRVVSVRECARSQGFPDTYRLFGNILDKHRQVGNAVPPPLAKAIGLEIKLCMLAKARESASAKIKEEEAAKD

[12] = target: T7, Low molecular weight phosphotyrosine protein phosphatase (Homo sapiens, UniProt P24666); type: functional; details: read-out: IC50_Mean;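 note: Dose-response confirmation assay measuring inhibition of LMPTP enzyme activity by fluorescence intensity read-out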
T7 sequence (P24666 whole entry): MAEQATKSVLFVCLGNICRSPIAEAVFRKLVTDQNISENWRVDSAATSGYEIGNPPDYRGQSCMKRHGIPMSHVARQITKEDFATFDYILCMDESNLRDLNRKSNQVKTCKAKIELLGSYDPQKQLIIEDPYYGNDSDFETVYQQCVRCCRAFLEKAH

[13] = target: T6, Tyrosine-protein phosphatase non-receptor type 7; assay: HePTP (PTPN7) phosphatase inhibitor potency, SAR follow-up, biochemical, set 2 (AID 449736); type: functional
[14] = target: T5, Dual specificity protein phosphatase 3; assay: MOA VHR1 Fluorescent secondary assay for identification of redox-state modulating compounds. [Related pubchem assays (depositor defined):AID1654, AID1661, AID1878, AID1957]
[15] = target: Tyrosine-protein phosphatase non-receptor type 12 (Homo sapiens, UniProt Q05209); assay: SAR Selectivity Analysis of small molecule inhibitors of PEST using pCAP in a fluorescence assay. [Related pubchem assays (depositor defined):AID1779, AID1784, AID2135]; type: functional
Chain of Tyrosine-protein phosphatase non-receptor type 12 (Q05209 whole entry): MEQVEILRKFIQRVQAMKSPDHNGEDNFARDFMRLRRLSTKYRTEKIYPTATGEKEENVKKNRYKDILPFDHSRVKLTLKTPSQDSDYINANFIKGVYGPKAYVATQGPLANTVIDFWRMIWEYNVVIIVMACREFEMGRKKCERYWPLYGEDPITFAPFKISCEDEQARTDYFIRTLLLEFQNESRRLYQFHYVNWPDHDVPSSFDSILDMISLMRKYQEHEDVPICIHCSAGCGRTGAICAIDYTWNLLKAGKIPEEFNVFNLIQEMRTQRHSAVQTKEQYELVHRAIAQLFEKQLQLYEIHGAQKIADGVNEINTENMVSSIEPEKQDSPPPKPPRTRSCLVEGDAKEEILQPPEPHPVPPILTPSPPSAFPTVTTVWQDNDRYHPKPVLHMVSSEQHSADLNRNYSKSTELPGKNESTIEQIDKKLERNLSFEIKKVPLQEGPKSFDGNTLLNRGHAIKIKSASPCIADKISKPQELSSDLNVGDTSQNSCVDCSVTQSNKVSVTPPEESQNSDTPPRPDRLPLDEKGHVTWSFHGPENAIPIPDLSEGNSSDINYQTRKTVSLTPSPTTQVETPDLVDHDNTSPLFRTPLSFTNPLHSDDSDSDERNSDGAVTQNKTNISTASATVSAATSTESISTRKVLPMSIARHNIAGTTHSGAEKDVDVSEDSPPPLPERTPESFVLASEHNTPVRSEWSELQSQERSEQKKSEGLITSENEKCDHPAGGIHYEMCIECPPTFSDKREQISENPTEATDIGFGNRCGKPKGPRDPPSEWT

[16] = target: T5, Dual specificity protein phosphatase 3; assay: SAR VHR1 Fluorescent Assay for In Vitro dose response studies. [Related pubchem assays (depositor defined):AID1654, AID1661, AID1878, AID1992, AID2004, AID2070, AID2085]; type: functional
[17] = target: T8, Tyrosine-protein phosphatase non-receptor type 22 (Homo sapiens, UniProt Q9Y2R2); assay: LYP (PTPN22) phosphatase inhibitor potency, SAR follow-up, biochemical, pCAP fluorogenic substrate, fluorescence, set 3 (AID 449727); type: functional
T8 sequence (Q9Y2R2 whole entry): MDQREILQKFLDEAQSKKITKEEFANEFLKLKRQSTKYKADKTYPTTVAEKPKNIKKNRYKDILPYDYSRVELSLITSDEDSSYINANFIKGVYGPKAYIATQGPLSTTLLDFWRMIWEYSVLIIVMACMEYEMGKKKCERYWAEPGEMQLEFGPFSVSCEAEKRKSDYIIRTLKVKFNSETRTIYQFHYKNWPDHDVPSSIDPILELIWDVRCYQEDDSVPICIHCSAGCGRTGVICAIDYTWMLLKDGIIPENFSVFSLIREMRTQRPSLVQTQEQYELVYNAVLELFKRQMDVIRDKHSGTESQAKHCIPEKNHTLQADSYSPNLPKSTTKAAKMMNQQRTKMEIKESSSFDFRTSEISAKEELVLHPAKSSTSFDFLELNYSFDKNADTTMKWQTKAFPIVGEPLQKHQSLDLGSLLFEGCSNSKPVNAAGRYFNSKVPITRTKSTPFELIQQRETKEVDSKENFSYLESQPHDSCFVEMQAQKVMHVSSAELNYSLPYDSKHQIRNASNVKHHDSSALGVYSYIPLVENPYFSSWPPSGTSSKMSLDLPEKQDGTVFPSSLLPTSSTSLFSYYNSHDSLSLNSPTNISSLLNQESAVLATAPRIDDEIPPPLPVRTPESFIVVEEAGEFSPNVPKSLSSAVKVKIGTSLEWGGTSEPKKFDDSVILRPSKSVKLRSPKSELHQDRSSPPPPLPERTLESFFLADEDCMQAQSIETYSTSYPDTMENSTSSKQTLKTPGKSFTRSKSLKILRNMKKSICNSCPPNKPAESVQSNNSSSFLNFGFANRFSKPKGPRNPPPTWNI

[18] = target: T8, Tyrosine-protein phosphatase non-receptor type 22; assay: SAR LYP1 Fluorescent Assay using OMFP substrate for In Vitro dose response studies - Set 3. [Related pubchem assays (depositor defined):AID1779, AID1784, AID2140, AID2686]; type: functional
[19] = target: T5, Dual specificity protein phosphatase 3; assay: SAR VHR1 absorbance Assay for In Vitro dose response studies. [Related pubchem assays (depositor defined):AID1654, AID1661, AID1878, AID1992, AID2004]
[20] = target: T9, Dual specificity protein phosphatase 6 (Rattus norvegicus, UniProt Q64346); type: functional;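 note: confirmatory in vitro dose-response testing of MKP-3 inhibition; recombinant His-tagged MKP-3 made in E. coli BL21 with OMFP substrate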
T9 sequence (Q64346 whole entry): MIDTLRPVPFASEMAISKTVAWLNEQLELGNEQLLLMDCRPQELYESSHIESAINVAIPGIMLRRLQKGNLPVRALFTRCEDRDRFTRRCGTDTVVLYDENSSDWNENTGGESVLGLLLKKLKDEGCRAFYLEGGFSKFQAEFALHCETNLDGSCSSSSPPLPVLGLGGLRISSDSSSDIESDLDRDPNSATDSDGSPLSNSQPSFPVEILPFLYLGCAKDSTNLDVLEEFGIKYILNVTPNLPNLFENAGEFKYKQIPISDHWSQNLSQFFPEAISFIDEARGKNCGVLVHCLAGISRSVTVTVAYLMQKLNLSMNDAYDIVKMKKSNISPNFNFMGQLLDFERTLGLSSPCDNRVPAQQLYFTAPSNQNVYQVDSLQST

CCn1c(SCC(=O)Nc2ccc3c(c2)oc2ccccc23)nnc1-c1ccc(N)cc1
active: IC50 [1] > 100 µM | IC50 [2] 2.88 µM | EC50 [3] 7.96 µM | IC50 [4] 11.7 µM | EC50 [5] 7.16 µM

CS(=O)(=O)c1ccc2nc(NC(=O)Nc3ccccc3F)sc2c1
> 43.8 µM (not active): IC50 [6] | IC50 [8]
inactive: EC50 [7] > 67.5 µM

Cc1cc(/C=C2/SC(=S)NC2=O)c(C)n1-c1cccc(Cl)c1
inactive: Ki [9] 82 µM

CC1=C(C(=O)OC(C)C)C(c2ccc(Cl)cc2)n2c(sc(=Cc3ccc(OCC(=O)O)cc3)c2=O)=N1 (stereo not given)
active: IC50 [10] 0.391 µM | IC50 [11] 5.43 µM | IC50 [12] 6.66 µM | IC50 [13] 0.304 µM | IC50 [14] 1.93 µM | IC50 [15] 1.68 µM | IC50 [16] 12.3 µM | IC50 [17] 3.63 µM | IC50 [18] 4.01 µM | IC50 [19] 0.967 µM | IC50 [20] 41.8 µM
